Test results published in US20060084704A1, “Methods and compositions for enhancing degradation of nuclear receptor transcription factors and uses thereof” (priority 2004, published 2006).

Legend:
LNCaP tumor cells = experiment: In vivo LNCaP xenograft tumor growth in nude mice; conditions: JC9 100 mg/kg/day ip three times per week, 7 weeks
Protocol: In related in vivo studies, LNCap human prostate tumor cells are xenografted by subcutaneous injection (2×10^6 per site) into nude mice. Mice are subsequently treated by intraperitoneal injection of either the vehicle solution alone as a control or the test compounds (JC9)) at a dose of 100 milligrams per kilogram body weight, three times a week for 7 weeks. Tumor volume is measured twice a week over the next 7 weeks. […] Such results can be taken as a strong indication that the suppression of AR activity and the resulting reduction of tumor growth induced by AR-degrading compounds such as JC15 or by JC9, may be translated into a practical use for treating or preventing diseases and disorders related to AR activity, such as prostate and other cancers.
Two million LNCaP tumor cells were inoculated, subcutaneously, into the left flank of nude mice. In the experimental animals, the nude mice were give an intraperitoneal (ip) injection of compound JC9 at 100 mg/kg/day three times per week or with vehicle control only. After 7 weeks of treatment the tumors were excised, weighed and compared. The tumor weight in ratio of vehicle control to JC9 was 0.694 g:0.172 g.

glucocorticoid receptor = biological target: T1, glucocorticoid receptor (Homo sapiens, UniProt P04150); experiment: Western blot of LNCaP cell lysates, GR; type: cell-based; conditions: 1 or 2 micromolar, 24 hours, presence or absence of DHT
T1 construct: endogenous in cells; host or cells: LNCaP
T1 sequence (P04150 1-777): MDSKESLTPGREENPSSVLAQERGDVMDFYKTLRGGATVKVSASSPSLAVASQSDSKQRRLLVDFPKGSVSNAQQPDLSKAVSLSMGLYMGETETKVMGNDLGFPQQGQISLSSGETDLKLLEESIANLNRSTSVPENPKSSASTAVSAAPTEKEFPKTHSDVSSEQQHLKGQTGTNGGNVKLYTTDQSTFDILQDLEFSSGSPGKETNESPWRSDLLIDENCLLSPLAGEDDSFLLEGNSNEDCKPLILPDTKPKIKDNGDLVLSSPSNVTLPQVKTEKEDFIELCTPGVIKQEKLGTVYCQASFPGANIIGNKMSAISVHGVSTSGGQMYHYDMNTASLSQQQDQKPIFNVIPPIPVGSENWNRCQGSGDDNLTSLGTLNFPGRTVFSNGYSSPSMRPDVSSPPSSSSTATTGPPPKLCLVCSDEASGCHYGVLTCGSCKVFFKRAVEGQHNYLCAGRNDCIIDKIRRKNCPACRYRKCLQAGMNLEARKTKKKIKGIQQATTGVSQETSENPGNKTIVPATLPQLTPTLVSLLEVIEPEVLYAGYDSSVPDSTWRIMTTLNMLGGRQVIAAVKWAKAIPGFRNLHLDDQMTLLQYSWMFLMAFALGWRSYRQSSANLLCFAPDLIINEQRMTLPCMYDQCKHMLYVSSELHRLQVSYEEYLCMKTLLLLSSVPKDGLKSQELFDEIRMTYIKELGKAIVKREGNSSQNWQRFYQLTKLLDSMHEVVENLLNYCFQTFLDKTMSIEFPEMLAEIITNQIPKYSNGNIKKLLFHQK
Protocol: (§1) Human prostate cancer LNCaP cells and T47D cells were plated at a density of 7×10^5 cells per 60 millimeter tissue culture dish in […] (RPMI) medium containing 10% FBS. The medium was changed to RPMI or DME medium containing 10% charcoal-stripped serum 24 hours later to deplete cellular androgens or estrogens. After another 24 hours, treatment with the test compounds began. The test dose of JC15 was 1 or 2 micromolar and the test does of JC9 was 1, 5 and 10 micromolar. LNCap cells also received dihydrotestosterone (DHT) (3 nanomolar). Control cells received a corresponding amount of the vehicle, dimethylsulfoxide (DMSO) (<0.04%) for an equivalent exposure time. Cells were incubated with JC15 for 24 or 48 hours, and were lysed in 250 microliters of 1×SDS/PAGE loading buffer. Approximately 40 micrograms of total cellular protein was loaded in each lane of a pre-cast gel (NuPAGE, Invitrogen). Protein separation and transfer were performed following the manufacturer's instructions.
(§2) For the prostate cell lysates, androgen receptor (AR) protein was visualized by incubating the resultant membranes with an anti-AR antibody (BD-PharMingen), followed by chemiluminescence detection (ECL Plus, Amersham). […] The resultant protein signals were quantified using densitometry and NIH ImageJ software.

retinoid X receptor = experiment: Western blot of LNCaP cell lysates, RXR; type: cell-based, human; conditions: 1 or 2 micromolar, 24 hours, presence or absence of DHT
Protocol: as §1, §2

## COc1ccc(C=CC(=O)C=C(O)C=Cc2ccc(OC)c(OC)c2)cc1OC [JC9, 5-hydroxy-1,7-bis(3,4-dimethoxyphenyl)-1,4,6-heptatrien-3-one]
LNCaP tumor cells
  reduction in tumor size compared to vehicle control: 75%
  tumor weight: 0.172 g

## CCOC(=O)CCC(C(=O)C=Cc1ccc(O)c(OC)c1)C(=O)C=Cc1ccc(O)c(OC)c1 (stereo not shown) [JC15, 7-(4-hydroxy-3-methoxyphenyl)-4-[3-(4-hydroxy-3-methoxyphenyl)acryloyl]-5-oxo-hept-6-enoic acid ethyl ester]
Glucocorticoid receptor
  cellular concentration of glucocorticoid receptor: did not substantially affect
Retinoid X receptor
  cellular concentration of retinoid X receptor: did not substantially affect
